{"source": "patent US20220313650A1", "about": "“METHODS FOR TREATING NEURODEVELOPMENTAL DISORDERS” (The Broad Institute, Inc., priority 2019, published 2022)", "key": {"[1]": {"test_system": "TRN neurons", "test": "Spontaneous EPSC recordings from TRN neurons, WT mice", "format": "cell-based", "settings": "LY379268 1 uM, with PTX", "protocol": "For conducting slice electrophysiology analysis, whole-cell patch-clamp recordings were performed using horizontal slices for the rebound bursting assays and angled-coronal thalamocortical slices for the synaptic optogenetics experiments (Agmon et al., 1991). 21-35 day old male C57BL6 mice and Ptchd1 Y/− (knockout) mice were used. Animals were transcardially perfused under isoflurane anesthesia with an ice-cold cutting solution (194 mM Sucrose, 30 mM NaCl, 4.5 mM KCl, 1.2 mM NaH2PO4, 10 mM Glucose, 2 mM MgCl2, 0.2 mM CaCl2, and 26 mM NaHCO3). Mice were then decapitated and the brains were carefully dissected out. Both cerebellum and olfactory bulb were removed from the brain and were placed and glued onto the stage of a Leica Vibratome with the ventral surface down and the pial surface towards the blade. 250 micron thick slices containing the TRN were then collected and recovered in regular artificial cerebrospinal fluid (aCSF; 119 mM NaCl, 2.3 mM KCl, 1 mM NaH2PO4; 11 mM Glucose, 1.3 mM MgCl2, 2.5 mM CaCl2), 26 mM NaHCO3) heated to 32° C. for 10 minutes and then at room temperature for at least 1 hr. All buffers were continuously bubbled with 95% O2/5% C02. Slices were then transferred to a submersion recording chamber where they were perfused with aCSF at a rate of 2 ml/min at room temperature. […]"}, "[2]": {"test_system": "Ptchd1 KO mice", "test": "Auditory GO/NO GO noise filtering test, Ptchd1 KO mice", "format": "in vivo", "settings": "LY379268 5 mg/kg i.p.", "protocol": "Behavioral Training and Testing was conducted. In brief, behavioral training and testing took place in grid-floor mounted, custom-built enclosures made of acrylic plastic (dimensions in cm: length: 15.2; width: 12.7; height: 24). All enclosures contained custom-designed operant ports, each of which was equipped with an IR LED/IR phototransistor pair (Digikey, Thief River Falls, Minn.) for nose-poke detection. Trial initiation was achieved through an initiation port mounted on the grid floor 6 cm away from the ‘response ports’ located at the front of the chamber. A pair of electrostatic speakers (Tucker Davis Technologies) producing the auditory stimuli were placed outside of the training apparatus and sound stimuli were conveyed via cylindrical tubes to apertures located at either side of the initiation port, allowing delivery of stereotypical stimuli across trials. All stimuli across tasks were generated by a TDT Rx8 sound system (Tucker-Davis Technologies, Alachua, Fla.). Sound stimuli were recorded and assessed for intensity using a prepolarized icp array microphone (PCB Piezotronics, Depew, N.Y.) after which frequency production was equalized using a software-based calibration via SigCalRP (Tucker-Davis Technologies, Alachua Fla.). […]\nThe sequence of “NO GO” stimuli followed a pre-determined pseudorandomized sequence which was shifted across testing sessions. […]"}}, "note": "“Also recorded” adds a separate entry of the source.", "data": [{"smiles": "N[C@@]1(C(=O)O)COC2C(C(=O)O)C21", "note": "(stereo in doubt) [LY379268, (1R,4R,5S,6R)-4-Amino-2-oxabicyclo[3.1.0] hexane-4,6-dicarboxylic acid]", "values": [{"measurement": "frequency of sEPSCs", "setting": "[1]", "result": "significantly reduced the frequency"}, {"measurement": "percentage of correct responses, auditory stimuli embedded with noise", "setting": "[2]", "result": "fully rescued noise filtering deficits in the Ptchd1 KO to control level; also recorded: rescued to control levels"}]}]}
